The values below come from patent US10335427B2, “Tumor prevention and treatment drug and applications thereof” (priority 2016, dated 2019).

For assay [1], the system named is Hela cells. The assay is described as follows: Hela tumor mass growth in nude mice (tumor weight, inhibition rate). The assay is classed as in vivo, Balb/c nude mice. Particulars: i.v. twice every week, 10 times, 8-oxodGTP 500 μg/kg/time, 5-FU 15 mg/kg/time. The method, then:
5×10^6 Hela cells (200 μl) were inoculated subcutaneously into the armpit of nude mice. After growing to a certain size, the tumor mass was reinoculated subcutaneously into the armpit of 24 nude mice, which were then randomly grouped into the 5-FU positive control group, the blank carrier control group, and the 8-oxodGTP group, and on the second day after the second inoculation, these nude mice were dosed intravenously. The 5-FU group was injected at a dose of 15 mg/kg/time, the 8-oxodGTP group was injected at a dose of 500 μg/kg/time, and the carrier control group was injected at an equal volume of blank carrier reagents. The injections were performed twice every week, for a total of 10 times. After the injections, the tumor mass was taken and weighed, so as to calculate the inhibition rate (inhibition rate=(1-T experimental group/C control group)×100%).

Assay [2] has as its system tumor cells. The settings on record: cited from earlier work.
Assay [3] concerns melanomas, SW480 colorectal cancer and MCF7 breast cancer. The settings on record: cited from earlier work.

In assay [1], `O=c1[nH]cc(F)c(=O)[nH]1` [5-FU, 5-fluorouracil] returned a Tumor weight of 988 ± 436.94 mg. In assay [1] (vs blank carrier group), this molecule came in with an Inhibition rate of 18%.

In the case of `CNc1cc(-c2cccc(Cl)c2Cl)nc(N)n1` [TH287], in assay [2], the “Effect of MTH1 inhibition on tumor cells” value is recorded as “selectively kill tumor cells”.

`Nc1nc(NC2CC2)cc(-c2cccc(Cl)c2Cl)n1` [TH588]: the “Effect in nude mice transplantation experiments” value in assay [3] was “therapeutic effects”. For the same molecule, in assay [2], the “Effect of MTH1 inhibition on tumor cells” value was “selectively kill tumor cells”.
